# Several values for one entry are separate records, joined by “and”; a condition that tells them apart may be missing. Identical values can stand only once. Like-named read-outs stand apart in the source and are kept apart here. Peptide text beside a SMILES is read from it.
# Legend:
# E. coli BW25113 [1] = assay: microbe, parasite or virus in culture; assay type: cell-based, Escherichia coli; conditions: for MICpeptide: synergist alone, E. coli BW25113, from checkerboard with vancomycin; for MSCpeptide: synergist concentration in the combination with vancomycin giving the lowest FICi; for MSCpeptide / MSCvanco: E. coli BW25113; for MSCvanco: vancomycin concentration in the combination giving the lowest FICi
# Method: (§1) All peptides were screened for antimicrobial activity against E. coli BW25113, E. coli ATCC25922, and E. coli W3110. A select group of the peptides was further tested against E. coli mcr-1, E. coli EQASmcr-1 (EQAS 2016 412016126), E. coli EQASmcr-2 (EQAS 2016 KP37), E. coli EQASmcr-3 (EQAS 2017 2013-SQ352), K. pneumoniae ATCC13883, P. aeruginosa ATCC27853, and A. baumannii ATCC17978. The antimicrobial assay was performed according to CLSI guidelines. Bacteria were plated out directly from their glycerol stocks on blood agar plates, incubated overnight at 37 °C, and then kept in the fridge. The blood agar plates were only used for 2 weeks and then replaced.
# (§2) One colony from a blood agar plates was inoculated in Lysogeny Broth (LB) at 37 °C until a 0.5 optical density at 600 nm (OD600) was reached (compared to the sterility control of LB). The bacterial suspension was diluted in fresh LB to 2.0 × 10^6 CFU/mL. The serial dilutions were prepared in polypropylene microtiter plates: a stock of the test compounds was prepared with a 2x final concentration in LB. Moreover, 100 µL of the stock was added to the wells of the top row of which 50 µL was used for the serial dilution. The bottom row of each plate was used as the positive (50 µL of LB) and negative controls (100 µL of LB) (6 wells each). Furthermore, 50 µL of the 2.0 × 10^6 CFU/mL bacterial stock was added to each well except for the negative controls, adding up to a total volume of 100 µL per well. The plates were sealed with a breathable seal and incubated for 20 h at 37 °C and 600 rpm.
# (§3) Two 96-well plates were required per compound. A serial dilution of the compound was performed on two plates from row A–G using with LB as medium. Row H was filled with 25 µL medium. On a separate plate a negative control (8 wells, 100 μL medium) was prepared. For all concentrations of antibiotic a specific stock was prepared. 25 µL medium was added to the 0 µg/mL antibiotic columns (plate I, column 1–3). Of each antibiotic stock 25 µL was added to three columns to obtain triplicates for every condition. Both plates contained 50 µL in each well to which 50 µL bacterial stock was added (see the protocol of the MIC assays) and the plates were sealed. After incubation for 20 h at 37 °C while shaking, the breathable seals were removed and the density of the bacterial suspensions measured at 600 nm (OD600) using a Tecan Spark plate reader. The OD600 values were transformed to a 2D gradient with the negative control as minimum and the positive control (wells G1, G2, and G3) as maximum in excel. The FICi was calculated using Equation (1) with a FICi ≤ 0.5 indicating synergy. FICi = (MSCa/MICa) + (MSCb/MICb),(1)
# (§4) Calculation of the FICi: MSCa = concentration of the […] in combination with the antibiotic that results in the lowest FICi. MICa = MIC of the antibiotic without synergist (row G). MSCb = concentration of the synergist in combination with the antibiotic that results in the lowest FICi. MICb = MIC of the synergist itself (Column 1–3, plate I).
# P. aeruginosa ATCC27853 = assay: Checkerboard assay with rifampicin; assay type: cell-based, Pseudomonas aeruginosa; conditions: P. aeruginosa ATCC27853; for MICpeptide: peptide alone; for MSCpeptide: peptide concentration in the combination with rifampicin giving the lowest FICi; for MSCrif: rifampicin concentration in the combination giving the lowest FICi
# Method: as §1, §2, §3, §4
# [2] = system: defibrinated sheep blood (red blood cells); assay: Hemolysis assay; assay type: cell-based; conditions: 200 µg/mL compound, 20 h incubation at 37 °C with defibrinated sheep blood, PBS 0.002% Tween20, absorbance 415 nm, relative to 0.1% Triton X-100; n=3 technical replicates
# Summary of the method: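 % hemolysis is supernatant absorbance at 415 nm, minus the buffer-only background, relative to 0.1% Triton X-100 lysis. Compound dilutions (200–1.56 µg/mL before adding cells) were incubated with an equal volume of red cells for 20 h at 37 °C and 500 rpm. Cells were washed and normalized in PBS/0.002% Tween20 to about 2.5 A415 at full lysis.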
# K. pneumoniae ATCC13883 = assay: Checkerboard assay with rifampicin; assay type: cell-based, Klebsiella pneumoniae; conditions: K. pneumoniae ATCC13883; for MICpeptide: peptide alone; for MSCpeptide: peptide concentration in the combination with rifampicin giving the lowest FICi; for MSCrif: rifampicin concentration in the combination giving the lowest FICi
# Method: as §1, §2, §3, §4
# A. baumannii ATCC17978 = assay: microbe, parasite or virus in culture; assay type: cell-based, Acinetobacter baumannii; conditions: for FICi: ATCC17978, 20 h; for MICpeptide: peptide alone; for MICpeptide / MSCpeptide / MSCrif: A. baumannii ATCC17978; for MSCpeptide: peptide concentration in the combination with rifampicin giving the lowest FICi; for MSCrif: rifampicin concentration in the combination giving the lowest FICi
# Method: as §1, §2, §3, §4
# E. coli BW25113 [3] = assay: Checkerboard assay with erythromycin; assay type: cell-based, Escherichia coli; conditions: for MSCery: erythromycin concentration in the combination with the synergist giving the lowest FICi, E. coli BW25113; for MIC of the peptide (MICpep): synergist alone, from checkerboard with erythromycin; for MIC of the peptide (MICpep) / MSCpeptide, minimum synergistic concentration: E. coli BW25113, LB, 20 h 37 °C; for MSCpeptide, minimum synergistic concentration: synergist concentration in the combination with erythromycin giving the lowest FICi, OD600
# [4] = system: E. coli EQASmcr-2 (EQAS 2016 KP37); assay type: cell-based, Escherichia coli; conditions: for MICpeptide: peptide alone; for MICpeptide / MSCpeptide / MSCrif: E. coli EQASmcr-2; for MSCpeptide: peptide concentration in the combination with rifampicin giving the lowest FICi; for MSCrif: rifampicin concentration in the combination giving the lowest FICi
# E. coli W3110 = assay type: cell-based, Escherichia coli; conditions: for FICi: W3110, 20 h; for MICpeptide: peptide alone; for MICpeptide / MSCpeptide / MSCrif: E. coli W3110; for MSCpeptide: peptide concentration in the combination with rifampicin giving the lowest FICi; for MSCrif: rifampicin concentration in the combination giving the lowest FICi
# [5] = system: E. coli EQASmcr-1 (EQAS 2016 412016126); assay type: cell-based, Escherichia coli; conditions: for FICi: EQASmcr-1 (EQAS 2016 412016126, 20 h); for MICpeptide: peptide alone; for MICpeptide / MSCpeptide / MSCrif: E. coli EQASmcr-1; for MSCpeptide: peptide concentration in the combination with rifampicin giving the lowest FICi; for MSCrif: rifampicin concentration in the combination giving the lowest FICi
# E. coli BW25113 [6] = assay type: cell-based, Escherichia coli; conditions: for FICi: BW25113, 20 h; for MICpep: synergist alone, E. coli BW25113, from checkerboard with rifampicin; for MSCpep: synergist concentration in the combination with rifampicin giving the lowest FICi, E. coli BW25113
Structure (SMILES),MICpeptide (E. coli BW25113 [1]),MSCpeptide (E. coli BW25113 [1]),MSCvanco (E. coli BW25113 [1]),MICpeptide (P. aeruginosa ATCC27853),MSCpeptide (P. aeruginosa ATCC27853),MSCrif (P. aeruginosa ATCC27853),Hemolysis [2],MICpeptide (K. pneumoniae ATCC13883),MSCpeptide (K. pneumoniae ATCC13883),MSCrif (K. pneumoniae ATCC13883),FICi (A. baumannii ATCC17978),MICpeptide (A. baumannii ATCC17978),MSCpeptide (A. baumannii ATCC17978),MSCrif (A. baumannii ATCC17978),MSCery (E. coli BW25113 [3]),MIC of the peptide (MICpep) (E. coli BW25113 [3]),"MSCpeptide, minimum synergistic concentration (E. coli BW25113 [3])",MICpeptide [4],MSCpeptide [4],MSCrif [4],other results
CC[C@H](C)[C@H](NC(=O)[C@H](Cc1c[nH]c2ccccc12)NC(=O)[C@H](CCCCN)NC(=O)[C@H](CCCCN)NC(=O)[C@H](CC(C)C)NC(=O)[C@H](CCCNC(=N)N)NC(=O)[C@H](Cc1ccccc1)NC(=O)[C@@H](N)C(C)C)C(=O)N[C@@H](CCC(N)=O)C(=O)N[C@@H](CCCCN)C(=O)N[C@H](C(=O)N[C@@H](C)C(N)=O)C(C)C [peptide 19] (H-VFRLKKWIQKVA-NH2),200 µg/mL,12.5 µg/mL,6.25 µg/mL,100 µg/mL,25 µg/mL,0.25 µg/mL,1.0%,> 200 µg/mL,6.25 µg/mL,0.25 µg/mL,0.0938,100 µg/mL,6.25 µg/mL,0.063 µg/mL,12.5 µg/mL,100 µg/mL,3.125 µg/mL,200 µg/mL,12.5 µg/mL,0.5 µg/mL,FICi ([4]; with rifampicin vs E. coli EQASmcr-2): 0.1250; FICi (E. coli W3110): 0.0782; MICpeptide (E. coli W3110): 100 µg/mL; MSCpeptide (E. coli W3110): 3.125 µg/mL; MSCrif (E. coli W3110): 0.5 µg/mL; FICi [5]: 0.0938; MICpeptide [5]: > 200 µg/mL; MSCpeptide [5]: 12.5 µg/mL; MSCrif [5]: 0.5 µg/mL; FICi (E. coli BW25113 [6]): 0.0781; MICpep (E. coli BW25113 [6]): 100 µg/mL; MSCpep (E. coli BW25113 [6]): 6.25 µg/mL
CC[C@H](C)[C@H](NC(=O)[C@@H](NC(=O)[C@H](CCCCN)NC(=O)[C@H](CCC(N)=O)NC(=O)[C@@H](NC(=O)[C@H](C)NC(=O)[C@H](CCCCN)NC(=O)[C@H](CCCCN)NC(=O)[C@H](CC(C)C)NC(=O)[C@H](CCCNC(=N)N)NC(=O)[C@H](Cc1ccccc1)NC(=O)[C@@H](N)C(C)C)[C@@H](C)CC)C(C)C)C(N)=O [peptide 14] (H-VFRLKKAIQKVI-NH2),> 200 µg/mL,50 µg/mL,50 µg/mL,> 200 µg/mL,50 µg/mL,0.5 µg/mL,0.9% and 1%,> 200 µg/mL,6.25 µg/mL,0.25 µg/mL,0.0781,> 200 µg/mL,6.25 µg/mL,0.125 µg/mL,12.5 µg/mL,> 200 µg/mL,6.25 µg/mL,> 200 µg/mL,25 µg/mL,0.25 µg/mL,"FICi (E. coli BW25113 [1]; BW25113, 20 h): 0.2500; FICi ([4]; EQASmcr-2 (EQAS 2016 KP37, 20 h)): 0.0938; FICi (E. coli W3110): 0.1875; MICpeptide (E. coli W3110): > 200 µg/mL; MSCpeptide (E. coli W3110): 50 µg/mL; MSCrif (E. coli W3110): 0.5 µg/mL; FICi [5]: 0.0938; MICpeptide [5]: > 200 µg/mL; MSCpeptide [5]: 12.5 µg/mL; MSCrif [5]: 0.5 µg/mL; FICi (E. coli BW25113 [6]): 0.1406; MICpep (E. coli BW25113 [6]): > 200 µg/mL; MSCpep (E. coli BW25113 [6]): 50 µg/mL"
